Measured values taken from US20230333087A1, “METHODS FOR MONITORING PATIENT RESPONSE TO TREATMENT OF RETINAL OXIDATIVE DISEASES” (BioJiva LLC, priority 2022, published 2023).

Tests used:
[1] = test system: 4-HNE and 4-HHE formation; conditions: present in lipid bilayers; cited from earlier work
[2] = clinical trials; cited from earlier work
LPO and cell death = conditions: FRDA, INAD, PSP; cited from earlier work
[3] = test system: iron-induced retinal autofluorescence and degeneration; experiment: Iron-induced retinal autofluorescence and degeneration, cSLO and OCT imaging 1 week after intravitreal iron; type: in vivo, C57BL/6J mice; conditions: DHA diet versus previous study with regular chow without DHA (LabDiet 5001)
Experimental: To evaluate the protective effect of 0.25% D-DHA diet, confocal scanning laser ophthalmoscopy (cSLO) and optical coherence tomography (OCT) were employed for in vivo imaging at 1 week after injections. For the cSLO imaging, both blue autofluorescence (BAF) and near-infra autofluorescence (IRAF) were performed.
Adult male wild-type C57BL/6J mice (Stock No.000664, Jackson Labs, Bar Harbor, ME, USA) were housed in standard conditions under cyclic light (12 h:12 h light-dark cycle). Mice had ad libitum access to water and food. Beginning at 2 mo of age, mice were placed on the AIN93G diet described above, supplemented with 0.25% D-DHA or DHA (control diet) for 1 week, 2 weeks, 3 weeks, or 4 weeks prior to the intravitreal injection. Mice were given an intravitreal injection of 1 µl 0.5 mM ferric ammonium citrate diluted in 0.9% NaCl (saline) (MP Biomedicals LLC, Santa Ana, CA) or
1 µl of saline as control. Intravitreal injections were performed as previously described ^54. Mice were continued on respective diet until their final evaluation. All housing and procedures were performed according to the NIH Guide for the Care and Use of Experimental Animals and approved by the University of Pennsylvania Animal Care and Use Committee.
Mice were given general anesthesia and placed on a platform. Pupils were dilated with 1% tropicamide saline solution (Akorn, Inc., Lake Forest, IL). Optical coherence tomography (OCT) imaging was performed for visualization of the retinal structure by using a Bioptigen
Envisu (R2200, Bioptigen Inc., Durham, NC, USA) coupled to a broadband LED light source (T870-HP, Superlum Diodes, Ltd, Ireland). Confocal scanning laser ophthalmoscopy (cSLO) (Spectralis HRA, Heidelberg Engineering, Franklin, MA, USA) was used for visualization of retinal AF using BluePeak™ or simply blue AF (488 nm excitation) and near-infrared AF (787 nm excitation) imaging modes.

[4] = test system: human RPE cell line ARPE-19; conditions: high-intensity light exposure; cited from earlier work

In the case of [2H]C([2H])(/C=C\CCCCC)/C=C\CCCCCCCC(=O)O [D2-linoleic acid], the “4-HNE and 4-HHE formation” value [1] is listed as “downregulated not just 4-HNE but also 4-HHE formation”.

In the case of [2H]C([2H])(/C=C\CCCCC)/C=C\CCCCCCCC(=O)OCC [RT001, 11,11-D2-Lin], the safety and tolerability [2] is given as “notable safety and tolerability” and the “LPO and cell death” value (LPO and cell death) is given as “inhibited LPO and rescued cell death”.

In the case of “docosahexaenoic acid [DHA, reference compound]”, the “severity of IVT iron induced damage” value [3] is listed as “less severe” and the “oxidative stress and LPO” value [4] is listed as “increased oxidative stress and LPO”.
